Test systems include MALME-3M melanoma; SR leukemia; U251 CNS; M14 melanoma; SF-295 CNS; NCI-H226 lung; UACC-62 melanoma; K-562 leukemia; SK-OV-3 ovarian; CCRF-CEM leukemia.
Test in all cases: NCI anticancer screen, dose series, 48 h

Several values for one entry are separate records, joined by “and”; a condition that tells them apart may be missing. Equal entries are not always repeated.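 The compound was tested at five concentrations on cells cultured in 96-well plates, with a 48-hour exposure period. Here, GI50 denotes the concentration required for 50% inhibition of growth. TGI is the concentration that stops growth completely.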 Bounds are passed on as bounds.

As for `CC1=CC(N2C(=O)C(C)=CC2O)NC1=O` (stereo not drawn), the TGI in the assay with MALME-3M melanoma, in the assay with SR leukemia, with U251 CNS, with M14 melanoma, in the assay with SF-295 CNS and in the assay on NCI-H226 lung was greater than 100 µM each time.

As for `Cc1c(O)c2c(c(O)c1Br)C(=O)C=CC2=O`, the GI50 with MALME-3M melanoma is 0.552 µM; in the assay on UACC-62 melanoma, 1.44 µM; with K-562 leukemia it was 0.0599 µM; in the assay on M14 melanoma, 1.01 µM; with SK-OV-3 ovarian it was 14.1 µM; with SF-295 CNS, 14 µM. The GI50 in the assay with NCI-H226 lung is 5.44 µM. The TGI with MALME-3M melanoma was 0.776 µM and 1.81 µM; in the assay on SR leukemia, 0.73 µM; in the assay with UACC-62 melanoma, 2.1 µM and 3.21 µM; in the assay on U251 CNS, 3.09 µM and 3.99 µM; in the assay on K-562 leukemia, 0.66 µM and 0.334 µM; in the assay with M14 melanoma it was 1.11 µM and 2.28 µM. In addition, the TGI in the assay on SK-OV-3 ovarian was 3.93 µM and 27.1 µM; in the assay with SF-295 CNS it was 3.15 µM and 28.2 µM; in the assay on NCI-H226 lung, 5.77 µM and 18.7 µM.

For `CCN1Cc2nc3sc(C)c(C)c3c(=O)n2C=C1C`, the GI50 with MALME-3M melanoma was 16.4 µM; in the assay on SR leukemia, 1.58 µM; in the assay with UACC-62 melanoma, 5.83 µM; in the assay on U251 CNS, 4.23 µM; in the assay on CCRF-CEM leukemia, 2.52 µM; with K-562 leukemia it was 3.35 µM. Further, the GI50 in the assay with SK-OV-3 ovarian is 74.1 µM; with SF-295 CNS, 20.2 µM; in the assay with NCI-H226 lung it was 8.17 µM. In addition, the TGI in the assay on MALME-3M melanoma is 73.5 µM; in the assay on SR leukemia, 8.49 µM; in the assay on UACC-62 melanoma, 24.7 µM; in the assay on U251 CNS, greater than 100 µM; in the assay with CCRF-CEM leukemia, 8.21 µM; with K-562 leukemia, 17.8 µM. The TGI with SK-OV-3 ovarian is greater than 100 µM; in the assay on SF-295 CNS it was greater than 100 µM; in the assay on NCI-H226 lung, 21.9 µM.

`CC1OC(OC2C(OC3CCC4(C)C(CCC5(C)C4CC=C4C6CC(C)(C)CCC6(C(=O)O)CCC45C)C3(C)CO)OCC(O)C2O)C(O)C(O)C1O` (stereo not drawn): the TGI in the assay with MALME-3M melanoma was 37.5 µM; with SR leukemia, 9.74 µM; in the assay with UACC-62 melanoma it was 26.1 µM; with U251 CNS it was 50.3 µM; in the assay with CCRF-CEM leukemia it was 18.3 µM; with K-562 leukemia, 44.7 µM. In addition, the TGI in the assay on SK-OV-3 ovarian worked out at 33.5 µM; in the assay on SF-295 CNS, 32 µM; in the assay with NCI-H226 lung, 49.6 µM.

`NCCNCc1c2ccccc2c(CNCCN)c2ccccc12`: the TGI was 29.8 µM in the assay with MALME-3M melanoma; greater than 100 µM in the assay on SR leukemia; 53.5 µM in the assay on UACC-62 melanoma; 97.7 µM with U251 CNS; 86.2 µM in the assay with CCRF-CEM leukemia; 36.7 µM in the assay on K-562 leukemia. Moreover, the values for the TGI in the assay with M14 melanoma and in the assay on SF-295 CNS were 35.2 µM and 82.8 µM, respectively.

`NCC1OC(OC2C(CO)OC(OC3C(O)C(N)CC(N)C3OC3OC(CO)C(O)CC3N)C2O)C(N)C(O)C1OC1OC(CO)C(O)C(O)C1O` (stereo not drawn): the GI50 in the assay on SR leukemia, with UACC-62 melanoma, in the assay on U251 CNS, in the assay on CCRF-CEM leukemia, with K-562 leukemia and in the assay with M14 melanoma was greater than 50 µg/mL throughout. The GI50 in the assay on SK-OV-3 ovarian, in the assay on SF-295 CNS and in the assay on NCI-H226 lung was greater than 50 µg/mL in each case. Besides, the TGI in the assay on SR leukemia, in the assay on UACC-62 melanoma, with U251 CNS, with CCRF-CEM leukemia, in the assay with K-562 leukemia and in the assay on M14 melanoma was greater than 50 µg/mL each time. For the same compound, the TGI in the assay with SK-OV-3 ovarian, in the assay on SF-295 CNS and in the assay on NCI-H226 lung was greater than 50 µg/mL throughout.

For the compound `CCCCCCCCCCCCCCCCC(=O)O.CCCCCCCCCCCCCCCCCC(=O)O.CCCCCCCCCCCCCCCCCC(=O)O.CCCCCCCCCCCCCCCCCC(=O)O.CCCCCCCCCCCCCCCCCC(=O)O.CO[CH-]OC12COC1CC(O)C1(C)C(O)C(OC(C)O)C3=C(C)C(OC(=O)C(O)C([NH-])c4ccccc4)CC(O)(C(OC(=O)c4ccccc4)C21)C3(C)C.[Cu+].[Zn].[Zn].[Zn].[Zn].[Zn]` (stereo not drawn), the GI50 in the assay with MALME-3M melanoma is 0.00947 µM; in the assay with SR leukemia, 0.00414 µM; in the assay with UACC-62 melanoma, 0.0118 µM; with U251 CNS, 0.00851 µM; with CCRF-CEM leukemia, 0.0095 µM; with K-562 leukemia it was 0.005 µM. Moreover, the GI50 with SK-OV-3 ovarian is 0.0203 µM; in the assay on SF-295 CNS it was 0.0102 µM; in the assay on NCI-H226 lung, 0.277 µM. Besides, the TGI in the assay on MALME-3M melanoma is 6.91 µM; in the assay with SR leukemia it was 11.5 µM; in the assay on UACC-62 melanoma it was 5.47 µM; in the assay on U251 CNS, 4.09 µM; with CCRF-CEM leukemia it was greater than 17.7 µM; in the assay with K-562 leukemia, greater than 25 µM. For the same compound, the TGI worked out at 5.3 µM in the assay on SK-OV-3 ovarian, 2.9 µM in the assay with SF-295 CNS and 8.05 µM in the assay on NCI-H226 lung.

Consider `OCc1ccc(N2CCc3ccccc3C2)cc1Cl`, for which the GI50 in the assay on MALME-3M melanoma was 20.3 µM; in the assay with SR leukemia it was 21.9 µM; in the assay with UACC-62 melanoma, less than 0.01 µM; with U251 CNS it was less than 0.0292 µM; with CCRF-CEM leukemia, 27.3 µM; in the assay with K-562 leukemia, less than 0.0224 µM. Besides, the results for the GI50 in the assay with M14 melanoma, in the assay on SK-OV-3 ovarian and with NCI-H226 lung were 34.1 µM, 0.754 µM and 0.0134 µM, respectively. In addition, the TGI is 56.6 µM with MALME-3M melanoma; greater than 76.4 µM with SR leukemia; 0.144 µM in the assay with UACC-62 melanoma; greater than 44.5 µM in the assay on U251 CNS; 99.6 µM in the assay on CCRF-CEM leukemia; 19 µM with K-562 leukemia. Also, the results for the TGI in the assay on M14 melanoma, in the assay with SK-OV-3 ovarian and with NCI-H226 lung were greater than 100 µM, 8.95 µM and 0.0768 µM, respectively.

With `CCCCCCCCn1ccc2cc(NC(=O)Cn3cc(CN4CCCCC4)nn3)ccc21`, the GI50 in the assay with MALME-3M melanoma is 1.58 µM; in the assay with SR leukemia it was 1.67 µM; with UACC-62 melanoma it was 1.81 µM; in the assay on U251 CNS, 1.78 µM; with CCRF-CEM leukemia, 2.01 µM; in the assay with M14 melanoma it was 1.78 µM. Moreover, the GI50 was 1.89 µM with SK-OV-3 ovarian, 1.81 µM in the assay with SF-295 CNS and 8.65 µM in the assay on NCI-H226 lung. Besides, the TGI in the assay with MALME-3M melanoma is 3 µM; in the assay on SR leukemia it was greater than 100 µM; in the assay with UACC-62 melanoma, 3.51 µM; in the assay on U251 CNS, 3.34 µM; with CCRF-CEM leukemia, 7.74 µM; in the assay with M14 melanoma it was 3.43 µM. Also, the results for the TGI in the assay with SK-OV-3 ovarian, in the assay on SF-295 CNS and with NCI-H226 lung were 3.97 µM, 3.65 µM and 27.7 µM, respectively.

As to `Cc1ccc(S(=O)OCC23CC4CC(CC(C4)C2)C3)cc1` (stereo not drawn), the TGI in the assay with MALME-3M melanoma, in the assay with SR leukemia, in the assay on UACC-62 melanoma, in the assay with U251 CNS, with K-562 leukemia and in the assay on M14 melanoma was greater than 100 µM in each case. Further, the TGI with SK-OV-3 ovarian, in the assay on SF-295 CNS and in the assay on NCI-H226 lung was greater than 100 µM each time.

These data come from PubChem BioAssay (NCI).
